Source: patent EP4588510A1, “OPENING/CLOSING CONTROL DEVICE FOR TARGET FORCE-SENSITIVE ION CHANNEL THAT GENERATES SOUND WAVE PATTERN BY USING RESONANCE FREQUENCY(IES), AND BRAIN FUNCTION CONTROL DEVICE” (UIF (University Industry Foundation), Yonsei University, priority 2022, dated 2024)

Molecular target: T1, Piezo1 ion channel (Mus musculus, UniProt E2JF22)
T1 construct: expressed in transfected cells; host or cells: HEK293
Experiment: c-Fos immunostaining of cellular activation in HEK293 cells expressing Piezo1
Format: cell-based
Conditions: Yoda1 10 µM, Fig. 2, Group F
Experimental: As a model system, HEK293 cells were utilized, and the Piezo1 ion channel, a mechanosensitive ion channel, was expressed in these cells to enable responsiveness to mechanical forces. To achieve this, 5×10^5 cells were seeded in a 60 mm dish, and 5 µg of CMV-Piezo1 plasmid was transfected using Lipofectamine 3000, following the standard protocol.
HEK293 cells expressing Piezo1 were then exposed to two different ultrasound frequencies, 2.0 MHz and 6.25 MHz, for 10 minutes, corresponding to the resonance frequency(ies) of Piezo1 in HEK293 cells. The objective was to observe differences in cellular activation based on frequency. The extent of cellular activation was quantified by immunostaining for c-Fos, a reporter of intracellular calcium ion influx, and the number of activated cells was represented as a percentage.

T1 sequence (E2JF22 whole entry): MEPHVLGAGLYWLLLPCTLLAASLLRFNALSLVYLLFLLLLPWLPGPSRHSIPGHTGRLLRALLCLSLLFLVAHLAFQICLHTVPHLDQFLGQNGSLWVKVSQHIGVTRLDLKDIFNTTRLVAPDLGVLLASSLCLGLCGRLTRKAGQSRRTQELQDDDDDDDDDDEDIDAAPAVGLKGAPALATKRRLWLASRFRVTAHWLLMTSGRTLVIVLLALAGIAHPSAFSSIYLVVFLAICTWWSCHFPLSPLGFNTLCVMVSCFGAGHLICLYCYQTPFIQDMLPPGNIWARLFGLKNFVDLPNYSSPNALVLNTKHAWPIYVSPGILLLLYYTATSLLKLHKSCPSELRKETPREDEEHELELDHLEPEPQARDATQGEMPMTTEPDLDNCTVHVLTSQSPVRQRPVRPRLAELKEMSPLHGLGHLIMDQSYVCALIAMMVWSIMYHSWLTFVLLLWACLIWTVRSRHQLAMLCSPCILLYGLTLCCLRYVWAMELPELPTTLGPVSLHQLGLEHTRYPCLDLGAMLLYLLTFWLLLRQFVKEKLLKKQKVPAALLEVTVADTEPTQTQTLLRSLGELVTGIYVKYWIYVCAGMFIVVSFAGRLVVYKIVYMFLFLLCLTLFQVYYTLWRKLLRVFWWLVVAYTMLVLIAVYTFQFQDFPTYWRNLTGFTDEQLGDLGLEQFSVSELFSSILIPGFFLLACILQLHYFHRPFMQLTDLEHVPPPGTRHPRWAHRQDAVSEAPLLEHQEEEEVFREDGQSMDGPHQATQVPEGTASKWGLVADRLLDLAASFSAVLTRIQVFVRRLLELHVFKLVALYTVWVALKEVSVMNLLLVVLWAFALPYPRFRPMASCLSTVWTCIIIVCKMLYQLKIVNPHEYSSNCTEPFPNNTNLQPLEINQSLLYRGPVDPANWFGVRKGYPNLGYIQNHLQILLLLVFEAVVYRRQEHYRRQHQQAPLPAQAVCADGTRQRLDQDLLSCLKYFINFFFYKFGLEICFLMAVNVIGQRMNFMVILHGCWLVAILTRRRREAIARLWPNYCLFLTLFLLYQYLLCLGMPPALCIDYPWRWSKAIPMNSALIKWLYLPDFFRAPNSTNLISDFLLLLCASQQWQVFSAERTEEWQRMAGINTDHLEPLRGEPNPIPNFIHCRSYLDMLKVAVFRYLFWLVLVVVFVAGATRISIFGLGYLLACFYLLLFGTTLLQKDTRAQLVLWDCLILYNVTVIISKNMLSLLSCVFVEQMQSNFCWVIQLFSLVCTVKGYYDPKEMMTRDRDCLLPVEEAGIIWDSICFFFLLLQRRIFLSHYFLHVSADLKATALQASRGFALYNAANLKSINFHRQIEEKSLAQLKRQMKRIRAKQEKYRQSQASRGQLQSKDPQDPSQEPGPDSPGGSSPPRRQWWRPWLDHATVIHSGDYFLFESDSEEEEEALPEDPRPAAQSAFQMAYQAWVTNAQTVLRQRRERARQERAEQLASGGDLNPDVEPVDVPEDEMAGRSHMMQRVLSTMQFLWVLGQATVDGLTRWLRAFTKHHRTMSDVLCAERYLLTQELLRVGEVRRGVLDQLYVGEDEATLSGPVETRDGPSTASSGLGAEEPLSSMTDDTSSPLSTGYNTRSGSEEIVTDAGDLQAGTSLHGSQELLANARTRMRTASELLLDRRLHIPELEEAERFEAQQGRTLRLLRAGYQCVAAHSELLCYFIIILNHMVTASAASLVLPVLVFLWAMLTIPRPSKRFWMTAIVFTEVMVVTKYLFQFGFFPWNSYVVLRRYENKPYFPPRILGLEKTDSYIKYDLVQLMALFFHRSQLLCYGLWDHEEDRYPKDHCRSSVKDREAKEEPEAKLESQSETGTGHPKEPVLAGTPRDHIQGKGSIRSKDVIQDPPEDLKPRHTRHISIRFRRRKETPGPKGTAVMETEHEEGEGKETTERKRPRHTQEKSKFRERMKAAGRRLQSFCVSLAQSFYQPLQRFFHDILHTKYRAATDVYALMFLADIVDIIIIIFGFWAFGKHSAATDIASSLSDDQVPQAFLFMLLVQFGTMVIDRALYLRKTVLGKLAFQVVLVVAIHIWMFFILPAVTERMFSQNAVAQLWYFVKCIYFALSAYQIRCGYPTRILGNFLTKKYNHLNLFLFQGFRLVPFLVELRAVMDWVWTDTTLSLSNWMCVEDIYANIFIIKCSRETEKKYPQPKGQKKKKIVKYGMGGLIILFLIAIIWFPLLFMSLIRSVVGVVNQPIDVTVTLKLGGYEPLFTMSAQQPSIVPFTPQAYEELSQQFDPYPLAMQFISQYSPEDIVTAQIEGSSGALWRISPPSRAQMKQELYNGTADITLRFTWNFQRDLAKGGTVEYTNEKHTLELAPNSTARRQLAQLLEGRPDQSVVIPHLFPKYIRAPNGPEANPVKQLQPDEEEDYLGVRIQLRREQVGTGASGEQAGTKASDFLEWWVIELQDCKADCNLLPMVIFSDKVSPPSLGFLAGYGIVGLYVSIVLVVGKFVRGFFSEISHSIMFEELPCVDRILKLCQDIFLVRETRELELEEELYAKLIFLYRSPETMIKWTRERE

activation (percentage of activated cells, c-Fos): 74%
SMILES: Clc1cccc(Cl)c1CSc1nnc(-c2cnccn2)s1 [Yoda1]
